≈ marks a conversion by molar mass, not a printed value.
test system: S. pneumoniae ATCC 49619; assay: Minimal inhibitory concentration (MIC) by broth microdilution (CLSI M7-A7); type: cell-based, Streptococcus pneumoniae; conditions: Streptococcus pneumoniae, ATCC49619; cation-adjusted Mueller Hinton Broth supplemented with 3% (v/v) lysed horse blood; microdilution method
Protocol: Minimal inhibitory concentrations (MICs; mg/l) were determined in cation-adjusted MuellerHinton Broth (supplemented with 3% (v/v) lysed horse blood for testing Streptococcus pneumoniae) by a microdilution method following the description given in “Methods for Dilution Antimicrobial Susceptibility Tests for Bacteria that Grow Aerobically”, Approved standard, 7th ed., a Clinical and Laboratory Standards Institute (CLSI) Document M7-A7, Wayne, Pa., USA, 2006.

SMILES	MIC [µg/mL]
CCNC(=O)Nc1cc2cccc(CNC(=O)C3CC3)c2cn1 [Example 13, cyclopropanecarboxylic acid [3-(3-ethyl-ureido)-isoquinolin-8-ylmethyl]-amide]	2 (≈ 6.4 µM)
CCNC(=O)Nc1cc2c(-c3ccncc3)ccc(CNC(=O)CN)c2cn1.Cl [Example 50, 2-amino-N-[3-(3-ethyl-ureido)-5-pyridin-4-yl-isoquinolin-8-ylmethyl]-acetamide hydrochloride]	4
CCNC(=O)Nc1cc2c(-c3ccncc3)ccc(CNC(=O)OCC#CCO)c2cn1 [Example 106, [3-(3-ethyl-ureido)-5-pyridin-4-yl-isoquinolin-8-ylmethyl]-carbamic acid 4-hydroxy-but-2-ynyl ester]	0.25 (≈ 0.577 µM)
CCNC(=O)Nc1cc2cccc(CNC(=O)OCc3ccncn3)c2cn1.Cl [Example 29, [3-(3-ethyl-ureido)-isoquinolin-8-ylmethyl]-carbamic acid pyrimidin-4-ylmethyl ester hydrochloride]	4
CCNC(=O)Nc1cc2cccc(CNC(=O)OCc3cncn3C)c2cn1.Cl [Example 38, [3-(3-ethyl-ureido)-isoquinolin-8-ylmethyl]-carbamic acid 3-methyl-3H-imidazol-4-ylmethyl ester hydrochloride]	8
CCNC(=O)Nc1cc2c(-c3cc(F)nc(F)c3)ccc(CNC(=O)OC)c2cn1 [Example 172, [5-(2,6-difluoro-pyridin-4-yl)-3-(3-ethyl-ureido)-isoquinolin-8-ylmethyl]-carbamic acid methyl ester]	1 (≈ 2.41 µM)
CCNC(=O)Nc1cc2c(-c3ccnc(F)c3)ccc(CNC(=O)OC)c2cn1 [Example 161, [3-(3-ethyl-ureido)-5-(2-fluoro-pyridin-4-yl)-isoquinolin-8-ylmethyl]-carbamic acid methyl ester]	0.5 (≈ 1.26 µM)
CCNC(=O)Nc1cc2c(-c3ccncc3)ccc(CNC(=O)CCC(=O)OC(C)(C)C)c2cn1 [Example 46, N-[3-(3-ethyl-ureido)-5-pyridin-4-yl-isoquinolin-8-ylmethyl]-succinamic acid tert-butyl ester]	2 (≈ 4.19 µM)
CCNC(=O)Nc1cc2cccc(CNC(=O)OCCF)c2cn1.Cl [Example 27, [3-(3-ethyl-ureido)-isoquinolin-8-ylmethyl]-carbamic acid 2-fluoro-ethyl ester hydrochloride]	4
CCNC(=O)Nc1cc2c(-c3ccncc3)ccc(CNC(=O)c3cn[nH]c3)c2cn1 [Example 73, 1H-pyrazole-4-carboxylic acid [3-(3-ethyl-ureido)-5-pyridin-4-yl-isoquinolin-8-ylmethyl]-amide]	2 (≈ 4.81 µM)
CCNC(=O)Nc1cc2c(-c3ccncc3)ccc(CNC(=O)OC(C)C)c2cn1 [Example 77, [3-(3-ethyl-ureido)-5-pyridin-4-yl-isoquinolin-8-ylmethyl]-carbamic acid isopropyl ester]	0.5 (≈ 1.23 µM)
CCNC(=O)Nc1cc2c(-c3ccncc3)ccc(CNC(=O)Cn3cccn3)c2cn1 [Example 70, N-[3-(3-ethyl-ureido)-5-pyridin-4-yl-isoquinolin-8-ylmethyl]-2-pyrazol-1-yl-acetamide]	0.5 (≈ 1.16 µM)
CCNC(=O)Nc1cc2c(-c3ccncc3)ccc(CNC(=O)OCC[C@@H](O)CO)c2cn1.Cl [Example 102, (R)-[3-(3-ethyl-ureido)-5-pyridin-4-yl-isoquinolin-8-ylmethyl]-carbamic acid 3,4-dihydroxy-butyl ester hydrochloride]	1
CCNC(=O)Nc1cc2c(-c3ccncc3)ccc(CNC(=O)OCCN(C)C(=O)OC(C)(C)C)c2cn1 [Example 82, tert-butyl (2-((((3-(3-ethylureido)-5-(pyridin-4-yl)isoquinolin-8-yl)methyl)carbamoyl)oxy)ethyl)(methyl)carbamate]	2 (≈ 3.83 µM)
CCNC(=O)Nc1cc2cccc(CNC(=O)OCc3cccnc3)c2cn1.Cl [Example 33, [3-(3-ethyl-ureido)-isoquinolin-8-ylmethyl]-carbamic acid pyridin-3-ylmethyl ester hydrochloride]	4
C#CCOC(=O)NCc1ccc(-c2cccc(O)c2)c2cc(NC(=O)NCC)ncc12.Cl [Example 133, [3-(3-ethyl-ureido)-5-(3-hydroxy-phenyl)-isoquinolin-8-ylmethyl]-carbamic acid prop-2-ynyl ester hydrochloride]	0.5
C#CCOC(=O)NCc1ccc(Cl)c2cc(NC(=O)NCC)ncc12 [Example 112, [5-chloro-3-(3-ethyl-ureido)-isoquinolin-8-ylmethyl]-carbamic acid prop-2-ynyl ester]	0.5 (≈ 1.39 µM)
CCNC(=O)Nc1cc2cccc(CNC(=O)OCc3cncnc3)c2cn1.Cl [Example 26, [3-(3-ethyl-ureido)-isoquinolin-8-ylmethyl]-carbamic acid pyrimidin-5-ylmethyl ester hydrochloride]	4
CCNC(=O)Nc1cc2c(-c3ccncc3)ccc(CNC(=O)OCCC(=O)OC)c2cn1.Cl [Example 105, methyl 3-((((3-(3-ethylureido)-5-(pyridin-4-yl)isoquinolin-8-yl)methyl)carbamoyl)oxy)propanoate hydrochloride]	4
CCNC(=O)Nc1cc2cccc(CNC(=O)Cc3ccccc3)c2cn1 [Example 12, N-[3-(3-ethyl-ureido)-isoquinolin-8-ylmethyl]-2-phenyl-acetamide]	1 (≈ 2.76 µM)
C#CCOC(=O)NCc1ccc(-c2ccccc2O)c2cc(NC(=O)NCC)ncc12.Cl [Example 139, [3-(3-ethyl-ureido)-5-(2-hydroxy-phenyl)-isoquinolin-8-ylmethyl]-carbamic acid prop-2-ynyl ester hydrochloride]	1
CCNC(=O)Nc1cc2cccc(CNC(=O)C3CCCCC3)c2cn1 [Example 6, cyclohexanecarboxylic acid [3-(3-ethyl-ureido)-isoquinolin-8-ylmethyl]-amide]	4 (≈ 11.3 µM)
CCNC(=O)Nc1cc2c(-c3ccnc(OC)c3)ccc(CNC(=O)OCCOC)c2cn1 [Example 117, [3-(3-ethyl-ureido)-5-(2-methoxy-pyridin-4-yl)-isoquinolin-8-ylmethyl]-carbamic acid 2-methoxy-ethyl ester]	1 (≈ 2.21 µM)
CCNC(=O)Nc1cc2c(-c3ccnc(OC(C)C)c3)ccc(CNC(=O)OC)c2cn1 [Example 173, [3-(3-ethyl-ureido)-5-(2-isopropoxy-pyridin-4-yl)-isoquinolin-8-ylmethyl]-carbamic acid methyl ester]	4 (≈ 9.14 µM)
CCNC(=O)Nc1cc2c(-c3ccncc3)ccc(CNC(=O)CCCOC)c2cn1 [Example 95, N-[3-(3-ethyl-ureido)-5-pyridin-4-yl-isoquinolin-8-ylmethyl]-4-methoxy-butyramide]	0.5 (≈ 1.19 µM)
CCNC(=O)Nc1cc2c(-c3ccncc3)ccc(CNC(=O)OCCC(=O)O)c2cn1 [Example 104, 3-((((3-(3-ethylureido)-5-(pyridin-4-yl)isoquinolin-8-yl)methyl)carbamoyl)oxy)propanoic acid]	8 (≈ 18.3 µM)
CCNC(=O)Nc1cc2c(-c3ccncc3F)ccc(CNC(=O)OC)c2cn1.Cl [Example 184, [3-(3-ethyl-ureido)-5-(3-fluoro-pyridin-4-yl)-isoquinolin-8-ylmethyl]-carbamic acid methyl ester hydrochloride]	1
